Where a chain is given by its changes, count along the chain named.
Assays:
[1] = molecular target: T1, NTAN1 H92A (Homo sapiens, UniProt Q96AB6, H92A); assay: In vitro deamidation assay, NTAN1 H92A mutant; format: biochemical; conditions: substrate NRAAA, 100 μM, 37 °C, pH 7.0, LC-MS; vs wild-type (Figure 1f); three independent experiments
T1 construct: The gene for full-length NTAN1 was cloned into pET-21a(+); made in house; host or cells: E. coli Rosetta 2(DE3)
T1 sequence (Q96AB6 1-310 H92A): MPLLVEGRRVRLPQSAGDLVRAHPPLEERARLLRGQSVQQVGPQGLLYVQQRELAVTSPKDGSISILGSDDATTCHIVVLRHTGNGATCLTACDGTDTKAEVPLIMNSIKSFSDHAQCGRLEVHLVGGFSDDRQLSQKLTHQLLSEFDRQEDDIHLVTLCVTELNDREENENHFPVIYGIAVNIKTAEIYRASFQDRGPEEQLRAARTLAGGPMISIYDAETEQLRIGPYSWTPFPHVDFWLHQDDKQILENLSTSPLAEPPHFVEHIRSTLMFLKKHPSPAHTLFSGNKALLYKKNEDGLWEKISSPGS
Excerpt: (§1) NTAN1 mutants were constructed using QuikChange Ⅱ Site-Directed Mutagenesis Kit (Agilent Technologies, Santa Clara, CA, USA). NTAN1 mutants, Q51A, S69A, T73A, T74A, C75A, H92A, S254A, T255A, and E260A were generated. The mutants were expressed and purified as for NTAN1.
(§2) Peptides with Nt-Asn which mimic potential substrates of NTAN1 were synthesized: NRA, NRAA, NRAAA, NRQVA, NRQVAA, NRQVAAA, NFAAR, NLAAR, NRAAR, NAAAR, NNAAR, NPAAR, NGAAR, and NDAAR. Non-Nt-Asn peptides, QRAAA and VRAAA, were also synthesized. NTAN1 (at concentrations of 0.5 μM, 0.16 μM, or 0.04 μM) and the peptides (at a concentration of 100 μM) were mixed and incubated at 37 °C in a buffer containing 200 mM NaCl and 10 mM HEPES-NaOH (pH 7.0). […] The deamidation coefficient of peptides catalyzed by NTAN1 was assessed by the slope of exponential curve drawn from the concentration of the substrate over incubation time.
(§3) The peptides were quantified by an LC-MS system (1260 Infinity/6430 Triple Quad, Agilent Technologies) equipped with a binary pump (G1312B), a thermostated column compartment (G1316C), a thermostat (G1330B), and an autosampler (G1367E). […] The data acquisition and processing were performed by using MassHunter Workstation Software Quantitative Analysis (Version B.05.00; Agilent Technologies, Santa Clara, CA, USA). […]

[2] = molecular target: T2, NTAN1 Q51A (Homo sapiens, UniProt Q96AB6, Q51A); assay: In vitro deamidation assay, NTAN1 Q51A mutant; format: biochemical; conditions: substrate NRAAA, 100 μM, 37 °C, pH 7.0, LC-MS (Figure 3e); three independent experiments
T2 construct: The gene for full-length NTAN1 was cloned into pET-21a(+); made in house; host or cells: E. coli Rosetta 2(DE3)
T2 sequence (Q96AB6 1-310 Q51A): T1 sequence (Q96AB6 1-310 H92A) with Q51A, A92H
Excerpt: as §1, §2, §3

[3] = test system: NTAN1 S69A; assay: In vitro deamidation assay, NTAN1 S69A mutant; format: biochemical, human; conditions: substrate NRAAA, 100 μM, 37 °C, pH 7.0, LC-MS (Figure 1d); three independent experiments
Excerpt: as §1, §2, §3

[4] = test system: NTAN1 S254A; assay: In vitro deamidation assay, NTAN1 S254A mutant; format: biochemical, human; conditions: substrate NRAAA, 100 μM, 37 °C, pH 7.0, LC-MS (Figure 3b); three independent experiments
Excerpt: as §1, §2, §3

[5] = molecular target: T3, NTAN1 C75A (Homo sapiens, UniProt Q96AB6, C75A); assay: In vitro deamidation assay, NTAN1 C75A mutant; format: biochemical; conditions: substrate NRAAA, 100 μM, 37 °C, pH 7.0, LC-MS; vs wild-type (Figure 1e); three independent experiments
T3 construct: The gene for full-length NTAN1 was cloned into pET-21a(+); made in house; host or cells: E. coli Rosetta 2(DE3)
T3 sequence (Q96AB6 1-310 C75A): T1 sequence (Q96AB6 1-310 H92A) with C75A, A92H
Excerpt: as §1, §2, §3

Deamidation activity of NTAN1 H92A [1]: completely abolished
Deamidation activity of NTAN1 Q51A [2]: lost most deamidation activity
Deamidation activity of NTAN1 C75A [5]: completely abolished
Substance: NRAAA [synthesized peptide with Nt-Asn, 5 mer model substrate of NTAN1]
Fold lower deamidation activity of NTAN1 S69A than wild-type NTAN1 [3]: approximately 5 fold
Lower deamidation rate of NTAN1 S254A than wild-type NTAN1 [4]: threefold

Source: paper PMC7022378, “Structural Analyses on the Deamidation of N-Terminal Asn in the Human N-Degron Pathway” (Biomolecules, 2020)
